Structures can show the parent of a compound that is named as a salt. Marks after values point to notes of the source that are not given here.
Tests used:
[1] = system: avian H7N9 influenza virus; settings: mice; cited from earlier work
[2] = system: divergent influenza A strains and influenza B strain; settings: cited from earlier work
[3] = system: SARS-CoV-2, USA-WA1/2020 strain; assay type: cell-based; settings: nasal spray 90%, ethanol 67.5%

SMILES	protection from fatal challenge [1]	inhibitory activity against influenza [2]	Virus Titer ([3]; after 25 minutes incubation with virus at 22±2° C., average of three replicates ± standard deviation) [Log10 CCID50/mL]	Log Reduction Value ([3]; reduction of virus compared with virus control (water), 25 minutes incubation at 22±2° C.)
CN(C)CCC(c1ccc(Cl)cc1)c1ccccn1 (stereo not shown) [Chlorpheniramine, chlorpheniramine maleate]	protects mice from fatal challenge	potent inhibitory activity		
CCO [Ethanol]			1.0 ± 0.6	3.2***
